Results on 4 molecules are retold here after BindingDB's records for doi:10.1124/jpet.105.089839 (F. Hoffmann-La Roche, 2005).

“And” between values parts separate entries of the source, which are not always exact repeats. Identical values can stand only once.

One may read the Ki as a dissociation constant, usually derived from enzyme kinetics or from competition with a known ligand. High values mean lower affinity, low ones higher affinity.

For test [1], the target named is Metabotropic glutamate receptor 5 (Homo sapiens, UniProt P41594).
The target of test [2] is Metabotropic glutamate receptor 5 (Rattus norvegicus, UniProt P31424).
Metabotropic glutamate receptor 5 (Rattus norvegicus, UniProt P31424), sequence (P31424 whole entry): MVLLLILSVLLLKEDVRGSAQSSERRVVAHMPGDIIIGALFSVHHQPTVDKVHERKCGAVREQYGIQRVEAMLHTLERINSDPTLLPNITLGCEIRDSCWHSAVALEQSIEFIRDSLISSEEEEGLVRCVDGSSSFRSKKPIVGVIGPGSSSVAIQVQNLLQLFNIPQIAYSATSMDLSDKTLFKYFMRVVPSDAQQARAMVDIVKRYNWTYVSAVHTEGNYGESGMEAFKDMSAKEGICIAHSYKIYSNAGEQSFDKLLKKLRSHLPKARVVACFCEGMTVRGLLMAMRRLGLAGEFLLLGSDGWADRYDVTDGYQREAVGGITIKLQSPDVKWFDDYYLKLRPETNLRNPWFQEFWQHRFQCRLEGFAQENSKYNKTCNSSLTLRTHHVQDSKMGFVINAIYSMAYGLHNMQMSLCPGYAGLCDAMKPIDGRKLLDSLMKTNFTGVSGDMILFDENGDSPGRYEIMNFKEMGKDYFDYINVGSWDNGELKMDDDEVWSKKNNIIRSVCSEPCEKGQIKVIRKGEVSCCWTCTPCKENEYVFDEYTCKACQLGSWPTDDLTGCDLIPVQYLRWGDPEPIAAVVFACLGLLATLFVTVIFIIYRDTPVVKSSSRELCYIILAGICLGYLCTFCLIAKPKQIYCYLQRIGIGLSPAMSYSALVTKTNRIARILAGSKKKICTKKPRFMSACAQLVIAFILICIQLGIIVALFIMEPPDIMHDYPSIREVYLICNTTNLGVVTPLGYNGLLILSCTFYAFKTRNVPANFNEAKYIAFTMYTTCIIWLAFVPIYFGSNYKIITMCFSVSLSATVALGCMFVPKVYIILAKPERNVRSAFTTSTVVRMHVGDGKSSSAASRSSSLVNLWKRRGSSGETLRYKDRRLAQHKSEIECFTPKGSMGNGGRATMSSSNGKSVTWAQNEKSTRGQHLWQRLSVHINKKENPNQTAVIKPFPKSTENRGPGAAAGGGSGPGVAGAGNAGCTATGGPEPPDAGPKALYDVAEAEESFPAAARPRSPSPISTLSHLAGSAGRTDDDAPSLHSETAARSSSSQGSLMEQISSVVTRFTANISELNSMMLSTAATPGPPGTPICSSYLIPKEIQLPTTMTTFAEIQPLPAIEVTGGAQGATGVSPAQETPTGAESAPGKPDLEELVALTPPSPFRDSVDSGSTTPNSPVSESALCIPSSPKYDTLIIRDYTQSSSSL

Metabotropic glutamate receptor 5 (Homo sapiens, UniProt P41594), sequence (P41594 whole entry): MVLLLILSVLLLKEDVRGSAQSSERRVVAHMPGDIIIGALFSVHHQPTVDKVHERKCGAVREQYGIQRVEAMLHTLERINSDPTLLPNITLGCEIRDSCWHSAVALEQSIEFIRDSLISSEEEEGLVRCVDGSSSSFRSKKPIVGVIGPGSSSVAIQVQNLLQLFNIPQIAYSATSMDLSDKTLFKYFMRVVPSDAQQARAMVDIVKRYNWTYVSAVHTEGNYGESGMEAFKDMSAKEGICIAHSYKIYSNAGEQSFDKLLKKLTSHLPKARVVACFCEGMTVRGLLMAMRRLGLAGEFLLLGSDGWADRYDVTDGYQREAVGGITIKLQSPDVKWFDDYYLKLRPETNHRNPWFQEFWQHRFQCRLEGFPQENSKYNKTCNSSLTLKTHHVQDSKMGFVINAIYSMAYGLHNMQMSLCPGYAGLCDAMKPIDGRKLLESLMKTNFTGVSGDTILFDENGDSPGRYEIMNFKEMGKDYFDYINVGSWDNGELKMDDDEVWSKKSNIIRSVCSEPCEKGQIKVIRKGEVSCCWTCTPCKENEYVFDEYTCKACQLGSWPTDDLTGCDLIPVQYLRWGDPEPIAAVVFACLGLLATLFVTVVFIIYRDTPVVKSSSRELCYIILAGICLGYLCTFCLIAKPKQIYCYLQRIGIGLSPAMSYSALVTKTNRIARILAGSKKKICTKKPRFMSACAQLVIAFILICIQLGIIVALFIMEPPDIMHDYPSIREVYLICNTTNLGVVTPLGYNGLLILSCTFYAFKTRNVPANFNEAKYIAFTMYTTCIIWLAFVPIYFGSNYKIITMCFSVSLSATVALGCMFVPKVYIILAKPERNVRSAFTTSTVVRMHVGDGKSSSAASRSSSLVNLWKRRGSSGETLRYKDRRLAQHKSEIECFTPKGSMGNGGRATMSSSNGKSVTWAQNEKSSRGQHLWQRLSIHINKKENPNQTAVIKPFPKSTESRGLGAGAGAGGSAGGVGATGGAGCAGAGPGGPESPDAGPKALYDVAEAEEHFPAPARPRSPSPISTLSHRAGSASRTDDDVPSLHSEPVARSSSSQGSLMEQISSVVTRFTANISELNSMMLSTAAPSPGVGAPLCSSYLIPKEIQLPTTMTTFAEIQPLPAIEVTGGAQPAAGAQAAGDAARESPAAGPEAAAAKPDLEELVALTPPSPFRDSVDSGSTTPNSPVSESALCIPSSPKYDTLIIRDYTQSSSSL

Take `Cc1ccc(O)c(N=Nc2ccccc2)n1` [CAS_5218788]: the Ki in test [1] was 357 nM and 328 nM and 1100 nM; in test [2], 486 nM and 346 nM.
On to `Cn1cc(O)nc1NC(=O)Nc1cccc(Cl)c1` [NSC_216215], for which the Ki in test [1] is 40.8 nM and 53 nM and 58 nM; in test [2], 56.3 nM and 50.8 nM.
For `N[C@@H](Cn1oc(=O)[nH]c1=O)C(=O)O` [NSC_40539], the Ki in test [1] and in test [2] was over 10000 nM each time.
Turning to `Cc1cccc(C=Cc2ccccc2)n1` [CAS_5311432], the Ki in test [1] was 334 nM and 219 nM and 800 nM; in test [2], 423 nM and 243 nM.
